Data published in patent publication US9992981B2, “Optogenetic control of reward-related behaviors” (The Board of Trustees of the Leland Stanford Junior …, priority 2010, dated 2018).
Read-outs that look alike come from different tables or passages of the source.

What was measured:
MSNs = test: IPSCs in MSNs during photostimulation of ChR2-expressing ChAT neurons in acute NAc slices; assay type: cell-based, mice
Description: Coronal cerebral brain slices were prepared from adult mice with virus previously injected (>2 weeks prior to slicing), using standard techniques in strict accordance with a protocol approved by the Animal Care and Use Committee at Stanford University. Coronal slices 250 μm thick were cut with a vibratome using a sapphire blade in ice cold N-methyl-D-glucamine (NMDG)-based cutting solution containing 135 mM NMDG, 1 mM KCl, 1.2 mM KH2PO4, 20 mM choline bicarbonate, 10 mM glucose, 1.5 mM MgCl2 and 0.5 mM CaCl2. Slices were maintained thereafter in artificial cerebral spinal fluid (ACSF) containing 119 mM NaCl, 2.5 mM KCl, 2.5 mM CaCl2, 1.3 mM MgCl2, 1 mM NaH2PO4, 26.2 mM NaHCO3 and 11 mM glucose. Slices were maintained in ACSF at 37° C. for 30 minutes, and thereafter at room temperature. ACSF was bubbled constantly with 95% O2/5% CO2 and heated to 34° C. for all experiments. Neurons were visualized on an upright microscope (Leica DM-LFSA) equipped with both DIC optics and a filter set for visualizing eYFP using a ×40 water-immersion objective and a charge-coupled device (CCD) camera. Whole-cell recordings were made from neurons using the electrode solution containing 120 mM potassium gluconate, 20 mM HEPES, 10 mM EGTA, 1 mM MgCl2, 2 mM Na-ATP, and 0.2 mM Na-GTP (pH 7.3, 290 mOsm/L); in experiments recording IPSCs, KCl was used to replace potassium gluconate. Pipette resistances were 3-5 MΩ, and recordings were made without series resistance compensation. Membrane potentials have been corrected for the error resulting from the liquid junction potentials. The holding potential (VM) for voltage-clamp experiments was −70 mV. […] […] Photocurrents were evoked using an optical switch with a 300W xenon lamp and either a 470±20 nm or a 580±20 nm bandpass filters; light power at the specimen was 11.52 mW mm^−2 (470 nm) or 10.64 mW mm^−2 (580 nm). Currents filtered at 2 kHz, digitized at 50 kHz, and recorded to disk using pClamp10 software (Axon Instruments).

ChAT neurons = test: Cocaine response of ChAT cells in slice (spontaneous firing); assay type: cell-based, mice; details: 5 μM cocaine bath, at 10 min; baseline 0.60±0.41 Hz; n=7
Description: Coronal cerebral brain slices were prepared from adult mice with virus previously injected (>2 weeks prior to slicing), using standard techniques in strict accordance with a protocol approved by the Animal Care and Use Committee at Stanford University. Coronal slices 250 μm thick were cut with a vibratome using a sapphire blade in ice cold N-methyl-D-glucamine (NMDG)-based cutting solution containing 135 mM NMDG, 1 mM KCl, 1.2 mM KH2PO4, 20 mM choline bicarbonate, 10 mM glucose, 1.5 mM MgCl2 and 0.5 mM CaCl2. Slices were maintained thereafter in artificial cerebral spinal fluid (ACSF) containing 119 mM NaCl, 2.5 mM KCl, 2.5 mM CaCl2, 1.3 mM MgCl2, 1 mM NaH2PO4, 26.2 mM NaHCO3 and 11 mM glucose. Slices were maintained in ACSF at 37° C. for 30 minutes, and thereafter at room temperature. ACSF was bubbled constantly with 95% O2/5% CO2 and heated to 34° C. for all experiments. Neurons were visualized on an upright microscope (Leica DM-LFSA) equipped with both DIC optics and a filter set for visualizing eYFP using a ×40 water-immersion objective and a charge-coupled device (CCD) camera. […] Currents filtered at 2 kHz, digitized at 50 kHz, and recorded to disk using pClamp10 software (Axon Instruments).

[1] = system: ChAT interneurons of the NAc; test: Conditioned place preference (CPP); assay type: in vivo, mice
[2] = after 15 minutes, cited from earlier work
[3] = Wavelength sensitivity of identified opsins (Tables 1 and 2); details: Table 1, opsins for inhibition

Br.COc1ccc(-c2ccc(=N)n(CCCC(=O)O)n2)cc1 [SR-95531]
effect on light-evoked synaptic currents in MSN (MSNs; SR-95531 (5 mM), NBQX and RS-CPP present): blocked

COC(=O)[C@H]1[C@@H](OC(=O)c2ccccc2)C[C@@H]2CC[C@H]1N2C [cocaine, benzoylmethylecgonine]
firing rate of ChAT neurons after cocaine (ChAT neurons): 1.74±0.56 Hz | Conditioned side (min), total time on cocaine-paired side on testing day ([1]; ChAT::Cre+ (eNphR3.0 inhibition paired with cocaine), 10 mg/kg): 10.3 min | Conditioned side (min), total time on cocaine-paired side on testing day ([1]; ChAT::Cre+ (eNphR3.0 inhibition paired with cocaine), 20 mg/kg): 10.7 min | Conditioned side (min), total time on cocaine-paired side on testing day ([1]; ChAT::Cre+ (eNphR3.0 inhibition paired with cocaine), 40 mg/kg): 10.5 min | Conditioned side (min), total time on cocaine-paired side on testing day ([1]; ChAT::Cre− control littermates, 10 mg/kg): 8.5 min | Conditioned side (min), total time on cocaine-paired side on testing day ([1]; ChAT::Cre− control littermates, 20 mg/kg): 14.2 min | Conditioned side (min), total time on cocaine-paired side on testing day ([1]; ChAT::Cre− control littermates, 40 mg/kg): 9.2 min | cocaine in the brain ([2]; i.p. 10 mg/kg): 4.7 µM | cocaine in the brain ([2]; i.p. 20 mg/kg): 9.4 µM

CNC1(C)C2CCC(C2)C1(C)C (centres unmarked) [mecamylamine]
IPSC frequency with light and mecamylamine (MSNs; 10 μM mecamylamine, light alone raised 3.4+/−1.3 Hz to 10.1+/−1.2 Hz, 470 nm, 10 Hz): 5.1+/−1.8 Hz | effect on light-evoked increase of IPSC frequency (MSNs; n=5, P<0.05): attenuated

B1: BR: opsin for inhibition, biological origin Halobacterium helobium (protein, UniProt P02945 14-262, looked up)
Bacteriorhodopsin: QAQITGRPEWIWLALGTALMGLGTLYFLVKGMGVSDPDAKKFYAITTLVPAIAFTMYLSMLLGYGLTMVPFGGEQNPIYWARYADWLFTTPLLLLDLALLVDADQGTILALVGADGIMIGTGLVGALTKVYSYRFVWWAISTAAMLYILYVLFFGFTSKAESMRPEVASTFKVLRNVTVVLWSAYPVVWLIGSEGAGIVPLNIETLLFMVLDVSAKVGFGLILLRSRAIFGEAEAPEPSAGDGAAATSD
Wavelength Sensitivity (max) [3]: 570 nm max

B2: NpHR: halorhodopsin from Natronomonas pharaonis (protein, UniProt P15647 1-291, looked up)
Halorhodopsin: MTETLPPVTESAVALQAEVTQRELFEFVLNDPLLASSLYINIALAGLSILLFVFMTRGLDDPRAKLIAVSTILVPVVSIASYTGLASGLTISVLEMPAGHFAEGSSVMLGGEEVDGVVTMWGRYLTWALSTPMILLALGLLAGSNATKLFTAITFDIAMCVTGLAAALTTSSHLMRWFWYAISCACFLVVLYILLVEWAQDAKAAGTADMFNTLKLLTVVMWLGYPIVWALGVEGIAVLPVGVTSWGYSFLDIVAKYIFAFLLLNYLTSNESVVSGSILDVPSASGTPADD
Wavelength Sensitivity (max) [3]: 589 nm max
